This note sets out measurements from patent US20260014125A1, “BICYCLIC-TYPE MAT2A INHIBITOR AND USE THEREOF” (HAIHE BIOPHARMA CO., LTD., priority 2022, published 2026).

One test relates to KP-4 cells. The test can be described thus: Human pancreatic cancer KP-4 cell activity inhibition test (CellTiter-Glo). In kind it is cell-based. To be noted: 5 days. As for the experimental part: Experimental principle: after co-incubating the MAT2A inhibitor to be tested with KP-4 cells for a period of time, a cell viability measurement method based on ATP content is used to characterize the effect of the tested compound on cell viability.
Experimental material: KP-4 cells (JCRB #JCRB0182); IMDM (Gibco 912440061); fetal bovine serum (EXCELL #FND500); penicillin-streptomycin (Gibco #15140-122); 0.25% Typsin-EDTA (Gibco #252(101-072); DMSO (Sigma #D2650); 96 well plate (Corning #3610); CellTiter-Glo (Promega #G7571)
1. KP-4 cells were cultured in IMDM culture medium containing 10% e fetal bovine serum and 1% penicillin-streptomycin at 37° C. and 5% CO2 in a cell culture incubator. Only cells in logarithmic growth phase were used for subsequent experiments.
2. The cells in logarithmic growth phase were inoculated into a 96 well plate, with a seeding quantity of 500 cells per well, and incubated overnight in a cell culture incubator at 37′C and 5% CO2.
3. The compound was dissolved with DMSO, diluted with culture medium to 10 different concentrations (approximately […]), 3333.3, 1111.1, 370, 123, 41.2, 13.7, 4.6, 1.5, and 0.5 nM) before adding it to the cell plate, and cultured at 37° C. and 5% CO2 for 5 days.
4. CellTiter-Glo reagent was added, and an enzyme-linked immunosorbent assay reader was used to detect cell viability.
Data analysis: the inhibition rate (%) of the compound was calculated and fitted to obtain the IC50 of the tested compound. Calculation method for compound inhibition rate: Compound inhibition rate (%)=(Signal_max−Signal_sample)/(Signal_max−Signal_min)×100, wherein Signal_sample was the sample well reading, indicating the cell activity of the compound inhibition well; Signal_min was the positive control well reading, indicating the background activity without cells; and Signal_max was the negative control well reading, indicating the cell activity of the well without compound inhibition.

The next test deals with MAT2A (Homo sapiens (Human), UniProt P31153). The test can be described thus: Biochemical test: inhibition of MAT2A enzyme activity (phosphate detection, OD620). As to conditions: MAT2A his-tag; 150 minutes enzymatic reaction. The text has this:
Experimental principle: MAT2A can catalyze the conversion of L-methionine and ATP into SAM, inorganic phosphate, and inorganic diphosphate. By adding a chromogenic reagent to the enzymatic reaction system, the content of inorganic phosphates in a sample can be quantitatively detected, thereby characterizing the enzymatic activity of MAT2A.
Experimental material: Tris (Life Science #0497); BSA (Sigma #); MAT2A his-tag (BPS #71401-1); 384 well plate (Corning #3765); L-methionine (Admas #1100469); ATP (Sigma #A7699); MgCl2 (Sigma #M8266); KCl (Sigma #7447-40-7); Brij35 (Sigma #B4184); EDTA (Sigma #E1644)
1. 1×Assaybuffer (buffer composition: Tris, KCl, MgCl2, BSA, Brij35, and EDTA; the solvent was ultrapure water) was prepared. MAT2A his-tag enzyme solution (containing 1.3 μL of MAT2A enzyme and 998.7 μL of 1×Assaybuffer per 1000 μL) and substrate mixed solution (containing 5 μL of ATP, 1.3 μL of L-methionine, and 993.7 μL of 1×Assaybuffer per 1000 μL) were prepared using 1×AssayBuffer.
2. Preparation of compound concentration gradient: The test compound was tested with a starting concentration of 10 μM, and 10 equimolar concentrations were set according to a 3-fold dilution. Specifically, firstly, the compound was diluted into 10 different concentrations of series solutions in a 384 well plate (with final detection concentrations of 10, 3.33, 1.11, 0.37, 0.123, 0.041, 0.0137, 0.0046, 0.0015, and 0.0005 μM), and then 250 nL of the above series solutions was transferred to the 384 well reaction plate using an ultrasonic pipetting system Echo550 for later use. 250 nL of 100% DMSO was added into a negative control well and a positive control well, respectively. Double well test.
3. 15 μL of MAT2A his-tag enzyme solution was added into both the compound well and the positive control well; and 15 μL of 1×Assaybuffer was added into the negative control well.
4. The 384 well plate reaction plate was centrifuged at 1000 rpm for 60 seconds, shaken, mixed well, and incubated for 15 minutes. 10 μL of substrate mixed solution was added into each experimental well of the 384 well reaction plate to initiate the reaction.
5. The 384 well reaction plate was centrifuged at 1000 rpm for 60 seconds, shaken, mixed well, and incubated for 150 minutes.
6. 50 μL of enzyme reaction termination solution Biomol was added into all experimental wells of the 384 well reaction plate to terminate the reaction, centrifuged at 1000 rpm for 60 seconds, and incubated for 15 minutes. OD620 was read and data was processed.
Data analysis: the inhibition rate (%) of the compound was calculated and fitted to obtain the IC50 of the tested compound. Calculation method for compound inhibition rate: Compound inhibition rate (%)=(OD620_max−OD620_stample)/(OD620_max−OD620_min)×100, wherein OD620_stample was the absorbance value of the sample well; OD620 min was the absorbance value of the positive control well, indicating the reading of the wells without enzyme activity; and OD620_max was the absorbance value of the negative control well, indicating the reading of the well without compound inhibition.

Chain of MAT2A (P31153 whole entry): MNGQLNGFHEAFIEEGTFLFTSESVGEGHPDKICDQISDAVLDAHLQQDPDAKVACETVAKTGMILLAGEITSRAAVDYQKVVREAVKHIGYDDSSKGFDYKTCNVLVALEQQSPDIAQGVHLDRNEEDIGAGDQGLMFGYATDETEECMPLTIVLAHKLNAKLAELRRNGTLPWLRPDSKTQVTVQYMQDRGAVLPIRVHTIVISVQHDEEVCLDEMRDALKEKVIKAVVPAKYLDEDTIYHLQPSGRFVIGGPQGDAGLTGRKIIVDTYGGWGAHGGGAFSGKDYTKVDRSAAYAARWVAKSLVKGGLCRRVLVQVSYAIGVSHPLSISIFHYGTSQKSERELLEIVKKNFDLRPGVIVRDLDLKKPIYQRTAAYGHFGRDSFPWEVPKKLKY

Usually IC50 stands for the concentration needed to halve the response being measured. On to `O=c1c(-c2ccc(Cl)cc2)c(OCC(F)(F)F)c2cn[nH]c2n1-c1ccc2nn(C3COC3)cc2c1` [Compound 93], for which the IC50 with KP-4 cells (Homo sapiens, 120 h) came to 1.5 nM; against MAT2A, 16.2 nM.
The like results for `CCOc1c(-c2ccc(Cl)cc2)c(=O)n(-c2ccc3nnn(C)c3c2)c2[nH]ncc12` [Compound 128] were, in that order, 1.2 nM and 8.6 nM.
The like results for `CCCOc1c(-c2ccc(Cl)nc2)c(=O)n(-c2ccc3nn(C)cc3c2)c2[nH]ncc12` [Compound 58] were, in that order, 3.5 nM and 14.8 nM.
The like results for `CCOc1c(-c2ccc(Cl)cc2)c(=O)n(-c2ccc3nn(CCN(C)C)cc3n2)c2[nH]ncc12` [Compound 132] were, in that order, 160 nM and 16.5 nM.
Take `Cn1cc2cc(-n3c(=O)c(-c4ccc(Cl)cc4)c(OCC(F)(F)F)c4cn[nH]c43)ccc2n1` [Compound 28]: the IC50 in the test with KP-4 cells (Homo sapiens, 120 h) amounted to 5.2 nM; on MAT2A it was 15 nM.
The like results for `Cn1cc2cc(-n3c(=O)c(-c4ccc(Cl)cc4)c(NCC4CC4)c4cn[nH]c43)ccc2n1` [Compound 123] were, in that order, 3.7 nM and 11.7 nM.
For `CCOc1c(-c2ccc(Cl)cn2)c(=O)n(-c2ccc3nn(C)cc3c2)c2[nH]ncc12` [Compound 62], in that order: 180 nM and 18 nM.
For `CCOc1c(-c2ccc(OC)cc2)c(=O)n(-c2ccc3ncn(C)c3c2)c2[nH]ncc12` [Compound 15], the IC50 turned out to be 159 nM in the test on KP-4 cells (Homo sapiens, 120 h) and 15.3 nM against MAT2A.
The like results for `Cn1cc2cc(-n3c(=O)c(-c4ccc(Cl)cc4)c(OCC4CC4)c4cn[nH]c43)ccc2n1` [Compound 50] were, in that order, 21.4 nM and 13.6 nM.
For `CCNc1c(-c2ccc(C(F)(F)F)nc2)c(=O)n(-c2ccc3nn(C)cc3c2)c2[nH]ncc12` [Compound 106], in that order: 234 nM and 28.8 nM.
For `Cn1cc2cc(-n3c(=O)c(-c4ccc(C(F)(F)F)nc4)c(NCC4CC4)c4cn[nH]c43)ccc2n1` [Compound 108], in that order: 66.7 nM and 17.3 nM.
On to `Cn1cc2cc(-n3c(=O)c(-c4ccc(OC(F)F)cc4)c(OCC(F)(F)F)c4cn[nH]c43)ccc2n1` [Compound 27], for which the 50% inhibitory concentration (IC50) with KP-4 cells (Homo sapiens, 120 h) came to 6.8 nM; against MAT2A, 17.1 nM.
For `CCOc1c(-c2ccc(C(F)(F)F)nc2)c(=O)n(-c2ccc3nn(CC)cc3c2)c2[nH]ncc12` [Compound 102], in that order: 41.1 nM and 20.6 nM.
The like results for `CCOc1c(-c2cnc(C(F)(F)F)nc2)c(=O)n(-c2ccc3nn(C)cc3c2)c2[nH]ncc12` [Compound 124] were, in that order, 236 nM and 18 nM.
Take `Cn1cc2cc(-n3c(=O)c(-c4ccc(Cl)cc4)c(NCC(F)(F)F)c4cn[nH]c43)ccc2n1` [Compound 63]: the concentration for half-maximal inhibition (IC50) was 2.4 nM in the test on KP-4 cells (Homo sapiens, 120 h) and 18.2 nM against MAT2A.
Regarding `CCOc1c(-c2ccc(OC(F)F)cc2)c(=O)n(-c2ccc3nn(CC)cc3c2)c2[nH]ncc12` [Compound 19], the concentration for half-maximal inhibition (IC50) in the test on KP-4 cells amounted to 7.4 nM; against MAT2A, 16.6 nM.
Consider `CCOc1c(-c2ccc(OC(F)F)cc2)c(=O)n(-c2ccc3nn(C)cc3n2)c2[nH]ncc12` [Compound 41], for which the 50% inhibitory concentration (IC50) with KP-4 cells (Homo sapiens, 120 h) came to 11.4 nM; on MAT2A, 12.7 nM.
For `Cn1cc2cc(-n3c(=O)c(-c4ccc(C5CC5)nc4)c(OCC(F)(F)F)c4cn[nH]c43)ccc2n1` [Compound 53], in that order: 19.5 nM and 16 nM.
For `CCOc1c(-c2ccc(OC(F)F)cc2)c(=O)n(-c2ccc3nn(C4COC4)cc3c2)c2[nH]ncc12` [Compound 37], in that order: 36 nM and 11 nM.
The like results for `CCOc1c(-c2ccc(OC(F)F)cc2)c(=O)n(-c2ccc3nn(C)cc3c2)c2nn(C)cc12` [Compound 45] were, in that order, 89.1 nM and 10.5 nM.
Take `CCOc1c(-c2ccc(C)cc2)c(=O)n(-c2ccc3nn(C)cc3c2)c2[nH]ncc12` [Compound 117]: the half-inhibitory concentration (IC50) with KP-4 cells (Homo sapiens, 120 h) was found to be 23.7 nM; on MAT2A it was 17.2 nM.
On to `CCOc1c(-c2ccc(C(F)(F)F)nc2)c(=O)n(-c2ccc3nn(C4COC4)cc3c2)c2[nH]ncc12` [Compound 92], for which the IC50 in the test on KP-4 cells (Homo sapiens, 120 h) was determined as 279 nM; on MAT2A it was 19.1 nM.
For `CCOc1c(-c2ccc(F)cc2)c(=O)n(-c2ccc3nn(C)cc3c2)c2[nH]ncc12` [Compound 17], in that order: 18 nM and 13.9 nM.
For `Cn1cc2nc(-n3c(=O)c(-c4ccc(Cl)cc4)c(OCC4CC4)c4cn[nH]c43)ccc2n1` [Compound 96], the half-inhibitory concentration (IC50) turned out to be 32 nM in the test with KP-4 cells (Homo sapiens, 120 h) and 17.6 nM on MAT2A.
For the compound `CCOc1c(-c2ccc(C3CC3)nc2)c(=O)n(-c2ccc3nn(C)cc3c2)c2[nH]ncc12` [Compound 47], the half-inhibitory concentration (IC50) in the test on KP-4 cells (Homo sapiens, 120 h) came to 6.6 nM; on MAT2A, 14.8 nM.
For `CCNc1c(-c2ccc(OC)cc2)c(=O)n(-c2ccc(=O)n(C)c2)c2[nH]ncc12` [Compound 7], in that order: above 10000 nM and 35.3 nM.
With `Cn1cc2cc(-n3c(=O)c(-c4ccc(C(F)(F)F)nc4)c(OCC4CC4)c4cn[nH]c43)ccc2n1` [Compound 104], the half-maximal inhibitory concentration (IC50) came to 8.3 nM in the test with KP-4 cells (Homo sapiens, 120 h) and 15.7 nM on MAT2A.
For `CNc1c(-c2ccc(OC)cc2)c(=O)n(-c2ccc3nn(C)cc3c2)c2[nH]ncc12` [Compound 4], in that order: 28 nM and 62 nM.
The like results for `COc1ccc(-c2c(OCC(F)(F)F)c3cn[nH]c3n(-c3ccc4nn(C)cc4c3)c2=O)cc1` [Compound 12] were, in that order, 11.7 nM and 12.1 nM.
For `CCOc1c(-c2ccc(OC(F)F)cc2)c(=O)n(-c2ccc3nncn3c2)c2[nH]ncc12` [Compound 26], in that order: 659 nM and 13.5 nM.
Consider `CCOc1c(-c2ccc(OC(F)F)cc2)c(=O)n(-c2ccc3ncn(C)c3c2)c2[nH]ncc12` [Compound 22], for which the IC50 in the test with KP-4 cells was 28.1 nM; against MAT2A, 16 nM.
On to `CCOc1c(-c2ccc(Cl)cc2)c(=O)n(-c2ccc3nn(C)nc3c2)c2[nH]ncc12` [Compound 127], for which the IC50 in the test on KP-4 cells (Homo sapiens, 120 h) was 8.9 nM; on MAT2A it was 12.4 nM.
In the case of `Cn1cc2cc(-n3c(=O)c(-c4ccc(F)cc4)c(OCC(F)(F)F)c4cn[nH]c43)ccc2n1` [Compound 49], the IC50 is 57.8 nM in the test on KP-4 cells (Homo sapiens, 120 h) and 17.9 nM on MAT2A.
For `CCOc1c(-c2ccc(Cl)cc2)c(=O)n(C2=NC3C(C=C2)N=NN3C)c2[nH]ncc12` (stereo not drawn) [Compound 141], in that order: 146 nM and 16.7 nM.
The like results for `Cc1ccc(-c2c(OCC(F)(F)F)c3cn[nH]c3n(-c3ccc4nn(C)cc4c3)c2=O)cn1` [Compound 52] were, in that order, 9 nM and 17.6 nM.
Take `Cn1cnc2ccc(-n3c(=O)c(-c4ccc(Cl)cc4)c(OCC(F)(F)F)c4cn[nH]c43)cc21` [Compound 36]: the IC50 in the test on KP-4 cells (Homo sapiens, 120 h) turned out to be 39.2 nM; against MAT2A, 17 nM.
